# Experimental data published in EP0642504B1 (priority 1991, dated 1993).
# Marks after values point to notes of the source that are not given here.
# Columns and labels:
# [1] = system: N-methyl-D-aspartate (NMDA) induced lethality; assay: Protection against NMDA induced lethality; type: in vivo, Balb/c male mice; conditions: 90 min before NMDA (125 mg/kg) s.c., no drug 0/20
# Source text: (§1) The present compounds are active in several tests generally used to indicate neuroprotection.
# [2] = system: mouse; assay: Ring test for cataleptic effects; type: in vivo; conditions: 5-min test period, vehicle 7.7 ± 4.4
# Experimental: The lack of CNS activity for the compounds described herein may be seen from the data shown in Table V. This was measured by the so-called "ring test" [Pertwee, R.G., et al., J. Pharmacol., 46, 753 (1972)] in which the cataleptic effects of cannabinoids can be quantitated. The compounds produced little or no response when compared with the parent drug.
# The cataleptic response was measured using the ring test. Mice were placed on a horizontal wire ring 5.5 cm in diameter, which was attached to a 16 cm vertical rod. The hind paws and fore paws were placed at opposite sides of the ring. It is important that the ambient temperature is maintained at 30°C and that the environment be free of auditory stimuli and bright lights. The criteria for immobility are detailed by Pertwee. The response is calculated as the fraction of time the mouse is immobile over a 5-min test period. Measurements were always done between 2 and 4 p.m. and the animals were used only once.
# [3] = system: strychnine induced lethality; assay: Protection against strychnine induced lethality; type: in vivo; conditions: rats
# Source text: as §1
# [4] = system: forebrain ischemia (unilateral occlusion); assay: Forebrain ischemia (unilateral occlusion); type: in vivo; conditions: mongolian gerbils
# Source text: as §1
# [5] = Solubility in the oocyte test medium; type: physicochemical
# Experimental: Several NMDA receptor blockers were tested. These compounds have very low solubility and have to be dissolved in 100% dimethyl sulfoxide (DMSO) and diluted for use in ND 96 that contained 1% DMSO. Therefore, the effect of 1% DMSO on the response to 10-^4 M NMDA and 5x10-^6 M glycine was examined. DMSO had no effect on NMDA response in three different cells.
# The effect of HU-245 was reversible upon return to ND 96 solution.
# [6] = system: picrotoxin induced lethality; assay: Protection against picrotoxin induced lethality; type: in vivo, Balb/c male mice; conditions: drug 10 mg/kg, 120 min before picrotoxin (8 mg/kg) s.c.; no drug 0/17
# Source text: as §1
# [7] = system: PAF-Induced Paw Edema; assay: PAF-induced paw edema (water displacement); type: in vivo, CD-1 female mice; conditions: oral, 15 min after PAF (1.0 µg s.c.), vs vehicle treated controls
# Experimental: A second model, in which edema is induced by platelet activating factor (PAF), was used to evaluate activity.
# (§2) The conditions were based on those reported previously [Calhoun et al., ibid.]. […] PAF (1.0 µg) or arachidonic acid (1.0 mg) dissolved in 50 µl of 5% ethanol in saline, were injected s.c. into the plantar surface of the right hind paw of CD-1 female mice (20-25 g) obtained from Charles River Labs. The mice were under ether anesthesia during this procedure. The volume of the right foot was measured to the level of the lateral malleous by water displacement before treatment and 15 min after PAF injection or 30 min after archidonate injection. The change in paw volume was calculated for each mouse and the significance for each group was determined by a paired t test analysis.
# [8] = system: Arachidonic Acid-Induced Paw Edema; assay: Arachidonic acid-induced paw edema (water displacement); type: in vivo, CD-1 female mice; conditions: oral, 30 min after arachidonic acid (1.0 mg s.c.), vs vehicle treated controls
# Experimental: The induction of paw edema in rodents by injection of arachidonic acid has been used as an experimental model for inflammation [Calhoun, W., et al., Agents and Actions, 21, 306 (1987)]. Prior administration of non-steroidal anti-inflammatory drugs (NSAIDs) in many cases leads to a dose related inhibition of the edematous response which may be considered a predictor of clinical efficacy.
# as §2
# [9] = system: peritoneal leukocytes; assay: Leukocyte adhesion assay, peritoneal cells collected after oral dosing; type: in vivo, CD-1 mice; conditions: cells collected 90 min after administration; for number of adhering cells x 10^-6 ± S.D.: 18-20 hours incubation
# Experimental: Leukocytes are thought to be major contributors to the inflammatory response and their ability in this regard is reflected by their adhesiveness to a variety of substrates [Audette, C.A., et al., Life Sci., 47, 753 (1990)].
# The details of the leukocytes adhesion assay have been previously reported [Audette et al., ibid.]. In brief, peritoneal cells from femals CD-1 mice (20-25 g) were collected at 90 min following oral administration of the drug or vehicle (50 µl peanut oil). Cells from each treatment group (N=3) were pooled and equal numbers aliquoted into six culture dish wells (1.9 cm^2 area). After incubation for 18-20 hours, non-adhering cells were removed and the remaining cell monolayer quantitated by DNA measurement.
# [10] = system: intraocular pressure; assay: Reduction of intraocular pressure (anti-glaucoma activity); type: in vivo, rabbits; conditions: 50 µl drop of a 1% emulsion into the rabbit eye
# Experimental: Reduction of intraocular pressure in rabbits was determined by the addition of a 50 µl drop of a 1% emulsion of the cannabinoid into the rabbit eye. This test is a measure of anti-glaucomatic activity.
smiles,measurement,setting,value
"CCCCCCC(C)(C)c1cc(OC(C)=O)c2c(c1)OC(C)(C)[C@H]1CC=C(C(=O)O)C[C@H]21 [HU-245, (3S,4S)-THC-DMH-7-oic acid, acetate]",Survival rate (number of survivors out of total number of animals used),[1]; drug 2.5 mg/kg,6/12
same,Survival rate (number of survivors out of total number of animals used),[1]; drug 10 mg/kg,8/10
same,Response ± SD (means of the fraction of time the mice remained immobile),[2]; dose 0.5 mg/kg,6.8 ± 2.4
same,Response ± SD (means of the fraction of time the mice remained immobile),[2]; dose 1.0 mg/kg,12.0 ± 6.0
same,protection against strychnine induced lethality,[3],protects against strychnine induced lethality
same,protection against forebrain ischemia,[4],protect against forebrain ischemia
same,solubility compared with prior art compounds,[5],higher than that of prior art compounds
same,solubility,"[5]; nd 96 with 1% dmso, organic solvent or mixture, ND 96 containing 1% DMSO, read-out: solubility (soluble at a concentration of up to)",≤ 0.1 µM
same,Survival rate (number of survivors out of total number of animals used),[6],5/8
same,percent inhibition of paw edema,[7]; dose 0.10 mg/kg,37.3* percent
same,percent inhibition of paw edema,[7]; dose 0.25 mg/kg,66.9* percent
same,percent inhibition of paw edema,[7]; dose 0.5 mg/kg,72.0* percent
same,percent inhibition of paw edema,[8]; dose 0.050 mg.kg,35.7 (N.S.) percent
same,percent inhibition of paw edema,[8]; dose 0.100 mg.kg,50.1* percent
same,percent inhibition of paw edema,[8]; dose 0.250 mg.kg,48.2* percent
same,percent inhibition of paw edema,[8]; dose 0.55 mg.kg,42.2 (N.S.) percent
same,"adhering cells, percent of control",[9]; dose 0.05 mg/kg oral,105% of control
same,number of adhering cells x 10^-6 ± S.D.,[9]; dose 0.05 mg/kg oral,1.32±0.04 x 10^-6
same,"adhering cells, percent of control",[9]; dose 0.10 mg/kg oral,52% of control
same,number of adhering cells x 10^-6 ± S.D.,[9]; dose 0.10 mg/kg oral,0.66±0.05 x 10^-6
same,"adhering cells, percent of control",[9]; dose 0.50 mg/kg oral,67% of control
same,number of adhering cells x 10^-6 ± S.D.,[9]; dose 0.50 mg/kg oral,0.85±0.08 x 10^-6
same,"adhering cells, percent of control",[9]; dose 1.00 mg/kg oral,24% of control
same,number of adhering cells x 10^-6 ± S.D.,[9]; dose 1.00 mg/kg oral,0.30±0.04 x 10^-6
same,Reduction of intraocular pressure,[10],Significant reduction
